Data published in PubChem BioAssay (NCI).
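Method: 48-hour compound exposure of cells in 96-well plates, five concentrations, linear interpolation of endpoints. TGI is the concentration that stops growth completely.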

Test system: SF-268 CNS
Experiment: growth of human tumour cells (NCI), 48 h

Structure (SMILES) | TGI [µM]
O=C(Nc1cccc2ccccc12)Nn1cnnc1 | > 100
CN(C)C=Nc1cccc2nsnc12 | > 100
COc1cc(S(=O)(=O)Nc2nc(-c3ccc(N4C(=O)CSC4c4cccs4)cc3)cs2)ccc1Cl (stereo not drawn) | > 100
COc1cc(S(=O)(=O)Nc2nc(-c3ccc(N4C(=O)C(CC(=O)O)SC4c4ccccc4O)cc3)cs2)ccc1Cl (stereo not drawn) | > 100
COC(=O)C(C)NP(=O)(N1CC1)N1CC1 (stereo not drawn) | > 100
N#C/C(=C\c1cn(Cc2ccccc2)c2ccccc12)c1nn(-c2ccccc2)c(N)c1C#N | 91.7
Ic1ncnc2c1ncn2C1CCCO1 (stereo not drawn) | > 100
COc1ccc(Nc2nnc(CCCCCCCCc3nnc(Nc4ccc(OC)cc4)o3)o2)cc1 | > 100
COc1cc(OCc2ccc3nc(-c4ccccc4)c(Cl)nc3c2)cc(OC)c1OC | > 100
CC1(C)C2CCC3=C(CCC4(C)C5C[C@](C)(C(=O)O)CC[C@]5(C)CC[C@]34C)[C@@]2(C)CC[C@@H]1O (stereo partly drawn) | > 100
O=[n+]1c2ccccc2n([O-])c2ccccc21 | > 100
CC[C@](O)(CC(=O)O[C@H]1C(=O)O[C@@H]2C[C@H]3C(C)=CC(=O)[C@@H](O)[C@]3(C)[C@H]3[C@@]4(O)OC[C@]32[C@@H]1[C@@H](C)[C@H]4O)C(C)C | < 0.01
CC(C)(C)O/C=C1/C(=O)OC2C[C@@H](O[Si](C)(C)C(C)(C)C)CC12 (stereo partly drawn) | > 100
O=C1CC(CC(O)[C@@H]2CCCC[C@@H]2O)CC(=O)N1c1ccccc1 (stereo partly drawn) | > 100
O=C1CC(=O)NC(=NN2C(=O)/C(=C/C(=O)c3ccco3)N=C2c2ccccc2)N1 | > 100
OC1(CCc2ccccc2)COC(C(F)(F)F)(C(F)(F)F)C1 (stereo not drawn) | > 100
CCC(C)C(C(=O)N/N=C1/SCC(=O)N1c1ccccc1)C(=O)N/N=C1/SCC(=O)N1c1ccccc1 (stereo not drawn) | > 100
Cc1c(C)c2c(c(N)c1C#N)C(=O)N(CCc1ccccc1)C2=O | > 100

Test system: SF-539 CNS
Experiment: growth of human tumour cells (NCI), 48 h

Structure (SMILES) | TGI [µM]
Cc1oc2c(c1C)S(=O)(=O)C(C#N)C(c1ccccc1)N2 (stereo not drawn) | > 100
COc1ccc2cc(Oc3ccc(Cl)cc3)c(=O)oc2c1 | > 100
O=c1[nH]n(Cc2ccccc2Cl)c2ccc([N+](=O)[O-])cc12 | > 100
CC1=NN(C(=O)CC(=O)Nc2ccc(C)cc2)C(=O)C1N=Nc1ccc(C(=O)O)cc1 (stereo not drawn) | > 100
COC(=O)Nc1nc2ccc(S(=O)(=O)NC(CC(C)C)C(=O)OC)cc2[nH]1 (stereo not drawn) | 38.3
COC1CC(C)C(OC)C2=CC(=O)C=C(NC(=O)/C(C)=C/C=C\C(C)C(OC(N)=O)/C(C)=C\C(C)C1OC)C2=O (stereo not drawn) | 1.04
O=C(Nc1cccc2ccccc12)Nn1cnnc1 | > 100
CN(C)C=Nc1cccc2nsnc12 | > 100
COc1cc(S(=O)(=O)Nc2nc(-c3ccc(N4C(=O)CSC4c4cccs4)cc3)cs2)ccc1Cl (stereo not drawn) | > 100
COc1cc(S(=O)(=O)Nc2nc(-c3ccc(N4C(=O)C(CC(=O)O)SC4c4ccccc4O)cc3)cs2)ccc1Cl (stereo not drawn) | > 100
COC(=O)C(C)NP(=O)(N1CC1)N1CC1 (stereo not drawn) | > 100
N#C/C(=C\c1cn(Cc2ccccc2)c2ccccc12)c1nn(-c2ccccc2)c(N)c1C#N | 7.22
Ic1ncnc2c1ncn2C1CCCO1 (stereo not drawn) | > 100
COc1ccc(Nc2nnc(CCCCCCCCc3nnc(Nc4ccc(OC)cc4)o3)o2)cc1 | > 100
COc1cc(OCc2ccc3nc(-c4ccccc4)c(Cl)nc3c2)cc(OC)c1OC | > 100
CC1(C)C2CCC3=C(CCC4(C)C5C[C@](C)(C(=O)O)CC[C@]5(C)CC[C@]34C)[C@@]2(C)CC[C@@H]1O (stereo partly drawn) | > 100
O=[n+]1c2ccccc2n([O-])c2ccccc21 | > 100
CC[C@](O)(CC(=O)O[C@H]1C(=O)O[C@@H]2C[C@H]3C(C)=CC(=O)[C@@H](O)[C@]3(C)[C@H]3[C@@]4(O)OC[C@]32[C@@H]1[C@@H](C)[C@H]4O)C(C)C | < 0.01
O=C1CC(CC(O)[C@@H]2CCCC[C@@H]2O)CC(=O)N1c1ccccc1 (stereo partly drawn) | > 100
O=C1CC(=O)NC(=NN2C(=O)/C(=C/C(=O)c3ccco3)N=C2c2ccccc2)N1 | > 100
OC1(CCc2ccccc2)COC(C(F)(F)F)(C(F)(F)F)C1 (stereo not drawn) | > 100
CCC(C)C(C(=O)N/N=C1/SCC(=O)N1c1ccccc1)C(=O)N/N=C1/SCC(=O)N1c1ccccc1 (stereo not drawn) | > 100
Cc1c(C)c2c(c(N)c1C#N)C(=O)N(CCc1ccccc1)C2=O | > 100

Test system: SNB-19 CNS
Experiment: growth of human tumour cells (NCI), 48 h

Structure (SMILES) | TGI [µM]
Cc1oc2c(c1C)S(=O)(=O)C(C#N)C(c1ccccc1)N2 (stereo not drawn) | > 100
CC(=O)Oc1cc2c(n(C)c1=O)-c1ccccc1C2 | > 100
COc1ccc2cc(Oc3ccc(Cl)cc3)c(=O)oc2c1 | > 100
O=c1[nH]n(Cc2ccccc2Cl)c2ccc([N+](=O)[O-])cc12 | > 100
CC1=NN(C(=O)CC(=O)Nc2ccc(C)cc2)C(=O)C1N=Nc1ccc(C(=O)O)cc1 (stereo not drawn) | > 100
CCOC(=O)CCC(NC(=O)c1ccc(CNc2nc3ccccc3nc2C(=O)OCC)cc1)C(=O)OCC (stereo not drawn) | > 100
COC(=O)Nc1nc2ccc(S(=O)(=O)NC(CC(C)C)C(=O)OC)cc2[nH]1 (stereo not drawn) | 45
OC(CCN1CCCCC1)(c1ccccc1)c1ccccc1 | > 100
COC1CC(C)C(OC)C2=CC(=O)C=C(NC(=O)/C(C)=C/C=C\C(C)C(OC(N)=O)/C(C)=C\C(C)C1OC)C2=O (stereo not drawn) | 18.1
O=C(Nc1cccc2ccccc12)Nn1cnnc1 | > 100
CN(C)C=Nc1cccc2nsnc12 | > 100
COc1cc(S(=O)(=O)Nc2nc(-c3ccc(N4C(=O)CSC4c4cccs4)cc3)cs2)ccc1Cl (stereo not drawn) | > 100
COc1cc(S(=O)(=O)Nc2nc(-c3ccc(N4C(=O)C(CC(=O)O)SC4c4ccccc4O)cc3)cs2)ccc1Cl (stereo not drawn) | > 100
COC(=O)C(C)NP(=O)(N1CC1)N1CC1 (stereo not drawn) | > 100
N#C/C(=C\c1cn(Cc2ccccc2)c2ccccc12)c1nn(-c2ccccc2)c(N)c1C#N | 28.8
Ic1ncnc2c1ncn2C1CCCO1 (stereo not drawn) | > 100
COc1ccc(Nc2nnc(CCCCCCCCc3nnc(Nc4ccc(OC)cc4)o3)o2)cc1 | > 100
COc1cc(OCc2ccc3nc(-c4ccccc4)c(Cl)nc3c2)cc(OC)c1OC | > 100
O=[n+]1c2ccccc2n([O-])c2ccccc21 | > 100
CC[C@](O)(CC(=O)O[C@H]1C(=O)O[C@@H]2C[C@H]3C(C)=CC(=O)[C@@H](O)[C@]3(C)[C@H]3[C@@]4(O)OC[C@]32[C@@H]1[C@@H](C)[C@H]4O)C(C)C | < 0.01
CC(C)(C)O/C=C1/C(=O)OC2C[C@@H](O[Si](C)(C)C(C)(C)C)CC12 (stereo partly drawn) | > 100
O=C1CC(CC(O)[C@@H]2CCCC[C@@H]2O)CC(=O)N1c1ccccc1 (stereo partly drawn) | > 100
OC1(CCc2ccccc2)COC(C(F)(F)F)(C(F)(F)F)C1 (stereo not drawn) | > 100
CCC(C)C(C(=O)N/N=C1/SCC(=O)N1c1ccccc1)C(=O)N/N=C1/SCC(=O)N1c1ccccc1 (stereo not drawn) | > 100
Cc1c(C)c2c(c(N)c1C#N)C(=O)N(CCc1ccccc1)C2=O | > 100

Test system: UACC-257 melanoma
Experiment: growth of human tumour cells (NCI), 48 h

Structure (SMILES) | TGI [µM]
Cc1oc2c(c1C)S(=O)(=O)C(C#N)C(c1ccccc1)N2 (stereo not drawn) | > 100
CC(=O)Oc1cc2c(n(C)c1=O)-c1ccccc1C2 | > 100
COc1ccc2cc(Oc3ccc(Cl)cc3)c(=O)oc2c1 | > 100
O=c1[nH]n(Cc2ccccc2Cl)c2ccc([N+](=O)[O-])cc12 | > 100
CC1=NN(C(=O)CC(=O)Nc2ccc(C)cc2)C(=O)C1N=Nc1ccc(C(=O)O)cc1 (stereo not drawn) | > 100
COC1CC(C)C(OC)C2=CC(=O)C=C(NC(=O)/C(C)=C/C=C\C(C)C(OC(N)=O)/C(C)=C\C(C)C1OC)C2=O (stereo not drawn) | 1.8
O=C(Nc1cccc2ccccc12)Nn1cnnc1 | > 100
CN(C)C=Nc1cccc2nsnc12 | > 100
COc1cc(S(=O)(=O)Nc2nc(-c3ccc(N4C(=O)CSC4c4cccs4)cc3)cs2)ccc1Cl (stereo not drawn) | > 100
COc1cc(S(=O)(=O)Nc2nc(-c3ccc(N4C(=O)C(CC(=O)O)SC4c4ccccc4O)cc3)cs2)ccc1Cl (stereo not drawn) | > 100
COC(=O)C(C)NP(=O)(N1CC1)N1CC1 (stereo not drawn) | > 100
N#C/C(=C\c1cn(Cc2ccccc2)c2ccccc12)c1nn(-c2ccccc2)c(N)c1C#N | 50
Ic1ncnc2c1ncn2C1CCCO1 (stereo not drawn) | > 100
COc1ccc(Nc2nnc(CCCCCCCCc3nnc(Nc4ccc(OC)cc4)o3)o2)cc1 | > 100
COc1cc(OCc2ccc3nc(-c4ccccc4)c(Cl)nc3c2)cc(OC)c1OC | > 100
O=[n+]1c2ccccc2n([O-])c2ccccc21 | > 100
CC[C@](O)(CC(=O)O[C@H]1C(=O)O[C@@H]2C[C@H]3C(C)=CC(=O)[C@@H](O)[C@]3(C)[C@H]3[C@@]4(O)OC[C@]32[C@@H]1[C@@H](C)[C@H]4O)C(C)C | < 0.01
CC(C)(C)O/C=C1/C(=O)OC2C[C@@H](O[Si](C)(C)C(C)(C)C)CC12 (stereo partly drawn) | > 100
O=C1CC(CC(O)[C@@H]2CCCC[C@@H]2O)CC(=O)N1c1ccccc1 (stereo partly drawn) | > 100
O=C1CC(=O)NC(=NN2C(=O)/C(=C/C(=O)c3ccco3)N=C2c2ccccc2)N1 | > 100
CCC(C)C(C(=O)N/N=C1/SCC(=O)N1c1ccccc1)C(=O)N/N=C1/SCC(=O)N1c1ccccc1 (stereo not drawn) | > 100
Cc1c(C)c2c(c(N)c1C#N)C(=O)N(CCc1ccccc1)C2=O | > 100

Test system: SF-295 CNS
Experiment: growth of human tumour cells (NCI), 48 h

Structure (SMILES) | TGI [µM]
Cc1oc2c(c1C)S(=O)(=O)C(C#N)C(c1ccccc1)N2 (stereo not drawn) | > 100
CC(=O)Oc1cc2c(n(C)c1=O)-c1ccccc1C2 | > 100
COc1ccc2cc(Oc3ccc(Cl)cc3)c(=O)oc2c1 | > 100
CC1=NN(C(=O)CC(=O)Nc2ccc(C)cc2)C(=O)C1N=Nc1ccc(C(=O)O)cc1 (stereo not drawn) | > 100
CCOC(=O)CCC(NC(=O)c1ccc(CNc2nc3ccccc3nc2C(=O)OCC)cc1)C(=O)OCC (stereo not drawn) | > 100
COC(=O)Nc1nc2ccc(S(=O)(=O)NC(CC(C)C)C(=O)OC)cc2[nH]1 (stereo not drawn) | 5.44
OC(CCN1CCCCC1)(c1ccccc1)c1ccccc1 | > 100
COC1CC(C)C(OC)C2=CC(=O)C=C(NC(=O)/C(C)=C/C=C\C(C)C(OC(N)=O)/C(C)=C\C(C)C1OC)C2=O (stereo not drawn) | 13.4
O=C(Nc1cccc2ccccc12)Nn1cnnc1 | > 100
CN(C)C=Nc1cccc2nsnc12 | > 100
COc1cc(S(=O)(=O)Nc2nc(-c3ccc(N4C(=O)CSC4c4cccs4)cc3)cs2)ccc1Cl (stereo not drawn) | > 100
COc1cc(S(=O)(=O)Nc2nc(-c3ccc(N4C(=O)C(CC(=O)O)SC4c4ccccc4O)cc3)cs2)ccc1Cl (stereo not drawn) | > 100
COC(=O)C(C)NP(=O)(N1CC1)N1CC1 (stereo not drawn) | > 100
N#C/C(=C\c1cn(Cc2ccccc2)c2ccccc12)c1nn(-c2ccccc2)c(N)c1C#N | 26.4
Ic1ncnc2c1ncn2C1CCCO1 (stereo not drawn) | > 100
COc1ccc(Nc2nnc(CCCCCCCCc3nnc(Nc4ccc(OC)cc4)o3)o2)cc1 | > 100
COc1cc(OCc2ccc3nc(-c4ccccc4)c(Cl)nc3c2)cc(OC)c1OC | > 100
O=[n+]1c2ccccc2n([O-])c2ccccc21 | > 100
CC[C@](O)(CC(=O)O[C@H]1C(=O)O[C@@H]2C[C@H]3C(C)=CC(=O)[C@@H](O)[C@]3(C)[C@H]3[C@@]4(O)OC[C@]32[C@@H]1[C@@H](C)[C@H]4O)C(C)C | < 0.01
CC(C)(C)O/C=C1/C(=O)OC2C[C@@H](O[Si](C)(C)C(C)(C)C)CC12 (stereo partly drawn) | > 100
O=C1CC(CC(O)[C@@H]2CCCC[C@@H]2O)CC(=O)N1c1ccccc1 (stereo partly drawn) | > 100
O=C1CC(=O)NC(=NN2C(=O)/C(=C/C(=O)c3ccco3)N=C2c2ccccc2)N1 | > 100
OC1(CCc2ccccc2)COC(C(F)(F)F)(C(F)(F)F)C1 (stereo not drawn) | > 100
CCC(C)C(C(=O)N/N=C1/SCC(=O)N1c1ccccc1)C(=O)N/N=C1/SCC(=O)N1c1ccccc1 (stereo not drawn) | > 100
Cc1c(C)c2c(c(N)c1C#N)C(=O)N(CCc1ccccc1)C2=O | > 100
